Measurements reported in the supplement of paper PMC10307832.

Legend:
Assay in all cases: relative viability (nuclei count vs DMSO), 5 days (fraction); higher = more cells survive
[1] = system: EMC-BAC-2
Procedure, shortened: (§1)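 Relative viability equals treated-well nuclei counts divided by vehicle-well nuclei counts. Counts came from 4× images of lung cancer cell lines grown in 1536-well plates for 5 days after pin-tool dosing on the day after seeding. Dosing used one drug alone or a fixed anchor-drug dose plus five library-drug doses (not always all listed) in √10 steps, and values are medians of duplicate plates.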

[2] = system: EPLC-272H
Procedure, shortened: as §1

[3] = system: HCC-78
Procedure, shortened: as §1

[4] = system: HCC-827
Procedure, shortened: as §1

[5] = system: LCLC-103H
Procedure, shortened: as §1

[6] = system: LK-2
Procedure, shortened: as §1

[7] = system: LOU-NH91
Procedure, shortened: as §1

[8] = system: LU99A
Procedure, shortened: as §1

[9] = system: LXF-289
Procedure, shortened: as §1

[10] = system: NCI-H1563
Procedure, shortened: as §1

[11] = system: NCI-H1666
Procedure, shortened: as §1

[12] = system: NCI-H1975
Procedure, shortened: as §1

[13] = system: NCI-H2085
Procedure, shortened: as §1

[14] = system: NCI-H2126
Procedure, shortened: as §1

[15] = system: NCI-H23
Procedure, shortened: as §1

[16] = system: NCI-H2405
Procedure, shortened: as §1

[17] = system: NCI-H3122
Procedure, shortened: as §1

[18] = system: NCI-H322M
Procedure, shortened: as §1

[19] = system: RERF-LC-KJ
Procedure, shortened: as §1

[20] = system: SK-LU-1
Procedure, shortened: as §1

[21] = system: SW 1573
Procedure, shortened: as §1

**Q.** What does the source list for `C=C1C(=O)O[C@@H](CCCCCCCC)[C@@H]1C(=O)O` [C-75] + Cc1nc(NC(=O)N2CCC[C@H]2C(N)=O)sc1-c1ccnc(C(C)(C)C(F)(F)F)c1 [Alpelisib] (partner 2 µM)?
**A.** relative viability ([1]; first compound 0.08 µM): 0.726; relative viability ([1]; first compound 0.253 µM): 0.688; relative viability ([1]; first compound 0.8 µM): 0.717; relative viability ([1]; first compound 2.53 µM): 0.679; relative viability ([1]; first compound 8 µM): 0.726; relative viability ([2]; first compound 0.08 µM): 0.95; relative viability ([2]; first compound 0.253 µM): 1.03; relative viability ([2]; first compound 0.8 µM): 0.873; relative viability ([2]; first compound 2.53 µM): 0.732; relative viability ([2]; first compound 8 µM): 0.862; relative viability ([3]; first compound 0.08 µM): 0.297; relative viability ([3]; first compound 0.253 µM): 0.318; relative viability ([3]; first compound 0.8 µM): 0.354; relative viability ([3]; first compound 2.53 µM): 0.336; relative viability ([3]; first compound 8 µM): 0.408; relative viability ([4]; first compound 0.08 µM): 0.936; relative viability ([4]; first compound 0.253 µM): 0.97; relative viability ([4]; first compound 0.8 µM): 0.953; relative viability ([4]; first compound 2.53 µM): 1.01; relative viability ([4]; first compound 8 µM): 0.987; relative viability ([5]; first compound 0.08 µM): 0.986; relative viability ([5]; first compound 0.253 µM): 0.94; relative viability ([5]; first compound 0.8 µM): 1.01; relative viability ([5]; first compound 2.53 µM): 0.89; relative viability ([5]; first compound 8 µM): 0.908; relative viability ([6]; first compound 0.08 µM): 0.921; relative viability ([6]; first compound 0.253 µM): 0.771; relative viability ([6]; first compound 0.8 µM): 1.13; relative viability ([6]; first compound 2.53 µM): 1.28; relative viability ([6]; first compound 8 µM): 1; relative viability ([7]; first compound 0.08 µM): 0.771; relative viability ([7]; first compound 0.253 µM): 0.643; relative viability ([7]; first compound 0.8 µM): 0.719; relative viability ([7]; first compound 2.53 µM): 0.744; relative viability ([7]; first compound 8 µM): 0.723; relative viability ([8]; first compound 0.08 µM): 0.537; relative viability ([8]; first compound 0.253 µM): 0.547; relative viability ([8]; first compound 0.8 µM): 0.516; relative viability ([8]; first compound 2.53 µM): 0.483; relative viability ([8]; first compound 8 µM): 0.389; relative viability ([9]; first compound 0.08 µM): 1.01; relative viability ([9]; first compound 0.253 µM): 0.979; relative viability ([9]; first compound 0.8 µM): 0.992; relative viability ([9]; first compound 2.53 µM): 0.973; relative viability ([9]; first compound 8 µM): 1.09; relative viability ([10]; first compound 0.08 µM): 0.939; relative viability ([10]; first compound 0.253 µM): 0.969; relative viability ([10]; first compound 0.8 µM): 0.886; relative viability ([10]; first compound 2.53 µM): 0.974; relative viability ([10]; first compound 8 µM): 0.901; relative viability ([11]; first compound 0.08 µM): 0.908; relative viability ([11]; first compound 0.253 µM): 1.13; relative viability ([11]; first compound 0.8 µM): 0.879; relative viability ([11]; first compound 2.53 µM): 0.987; relative viability ([11]; first compound 8 µM): 0.71; relative viability ([12]; first compound 0.08 µM): 0.657; relative viability ([12]; first compound 0.253 µM): 0.675; relative viability ([12]; first compound 0.8 µM): 0.698; relative viability ([12]; first compound 2.53 µM): 0.61; relative viability ([12]; first compound 8 µM): 0.66; relative viability ([13]; first compound 0.08 µM): 0.974; relative viability ([13]; first compound 0.253 µM): 1.1; relative viability ([13]; first compound 0.8 µM): 0.957; relative viability ([13]; first compound 2.53 µM): 0.89; relative viability ([13]; first compound 8 µM): 0.898; relative viability ([14]; first compound 0.08 µM): 0.79; relative viability ([14]; first compound 0.253 µM): 0.826; relative viability ([14]; first compound 0.8 µM): 0.732; relative viability ([14]; first compound 2.53 µM): 0.621; relative viability ([14]; first compound 8 µM): 0.774; relative viability ([15]; first compound 0.08 µM): 0.546; relative viability ([15]; first compound 0.253 µM): 0.818; relative viability ([15]; first compound 0.8 µM): 0.565; relative viability ([15]; first compound 2.53 µM): 0.618; relative viability ([15]; first compound 8 µM): 0.505; relative viability ([16]; first compound 0.08 µM): 0.833; relative viability ([16]; first compound 0.253 µM): 0.481; relative viability ([16]; first compound 0.8 µM): 0.703; relative viability ([16]; first compound 2.53 µM): 0.884; relative viability ([16]; first compound 8 µM): 0.816; relative viability ([17]; first compound 0.08 µM): 0.767; relative viability ([17]; first compound 0.253 µM): 0.922; relative viability ([17]; first compound 0.8 µM): 0.765; relative viability ([17]; first compound 8 µM): 0.801; relative viability ([18]; first compound 0.08 µM): 0.776; relative viability ([18]; first compound 0.253 µM): 1.05; relative viability ([18]; first compound 0.8 µM): 0.821; relative viability ([18]; first compound 2.53 µM): 0.771; relative viability ([18]; first compound 8 µM): 0.836; relative viability ([19]; first compound 0.08 µM): 0.834; relative viability ([19]; first compound 0.253 µM): 0.875; relative viability ([19]; first compound 0.8 µM): 0.817; relative viability ([19]; first compound 2.53 µM): 0.765; relative viability ([19]; first compound 8 µM): 0.979; relative viability ([20]; first compound 0.08 µM): 1.04; relative viability ([20]; first compound 0.253 µM): 1.23; relative viability ([20]; first compound 0.8 µM): 0.909; relative viability ([20]; first compound 2.53 µM): 1.02; relative viability ([20]; first compound 8 µM): 0.552; relative viability ([21]; first compound 0.08 µM): 0.711; relative viability ([21]; first compound 0.253 µM): 0.7; relative viability ([21]; first compound 0.8 µM): 0.638; relative viability ([21]; first compound 2.53 µM): 0.683; relative viability ([21]; first compound 8 µM): 0.655
